Test results from patent US11065239B2, “Use of EZH2 inhibitor combined with BTK inhibitor in preparing drug for treating tumor” (Jiangsu Hengrui Medicine Co., Ltd., priority 2017, dated 2021).

Key:
[1] = tested on: human B cell lymphoma SU-DHL-4 cells subcutaneous transplantation tumor; experiment: Subcutaneous transplantation tumor in mice inoculated with SU-DHL-4 cells; format: in vivo, SCID.BG mice; conditions: SU-DHL-4 xenograft, PO; for Mean tumor volume D 0: baseline at first administration; for Mean tumor volume D 0 / % T/C D 14 / % tumor inhibition rate D 14 / Mean tumor volume D 14 / Complete regression (number of mice) / Partial regression (number of mice): 50 mg/kg each, BID, D 0-13; for Complete regression (number of mice) / Partial regression (number of mice): 8 mice per group; for tumor completely regressed, fraction of mice / tumor partially regressed, fraction of mice: 50 mg/kg; for tumor partially regressed, fraction of mice: text says QD×14
From the text: Test animals: SCID.BG mice, 5-6 weeks old, female, purchased from Shanghai Lingchang Biotechnology Co., Ltd., with laboratory animals use license No.: SCXK (Shanghai) 2013-0018 and animal certificate No.: 2013001820833, feeding condition: SPF grade.
The test compounds were all formulated with 0.2% Tween 80+0.5% CMC solution, and diluted to the corresponding concentration.
(1) The mice were subcutaneously inoculated with SU-DHL-4 cells (B cell lymphoma SU-DHL-4 cells were purchased from ATCC). When the tumors grown to 100-150 mm^3, the animals were grouped according to the tumor volume (D0).
(§1) (2) Observation and recording: the tumor volume was measured 2 to 3 times per week, the mice were weighed, and the data were recorded.
(§2) The endpoint is mainly dependent on whether the tumor growth is delayed or whether the mouse is cured. The tumor volume (in mm^3) was measured twice a week with caliper in two dimensions.
(§3) The tumor volume (V) is calculated as: V=0.5×a×b^2, wherein a and b represent length and width, respectively; T/C (%)=(T−T0)/(C−C0)×100, wherein T and C represent the tumor volume at the end of the experiment; T0 and C0 represent the tumor volume at the beginning of the experiment. The T/C value (percentage) is indicative of anti-tumor efficacy. Tumor growth inhibition rate (TGI) (%)=100−T/C (%);
When the tumor regressed, the tumor growth inhibition rate (TGI) (%)=100−(T−T0)/T0×100
If the tumor volume is smaller than the initial volume, i.e. T<T0 or C<C0, it is defined as partial regression (PR); if the tumor completely disappears, it is defined as complete regression (CR).
(§4) (4) Data analysis: the statistics were summarized, including mean and standard error of mean (SEM), statistical analysis of differences in tumor volume between groups, and analysis of data obtained by drug interaction that was carried out at the optimal treatment time point after the last administration (Day 14 after grouping). One-way variance analysis was performed to compare tumor volume and tumor weight between groups. When a […] F-statistic was obtained (p<0.001, treatment variance vs. error variance), single-tailed Mann-Whitney statistical analysis was performed to compare tumor volumes of the two groups, and P<0.05 was considered as statistically significant.

[2] = tested on: human B cell lymphoma DOHH-2 cells; experiment: Proliferation of DOHH-2 cells in vitro (MTT); format: cell-based; conditions: single compound, 72 hours
Experimental: Cell line: human B cell lymphoma DOHH-2 cells (purchased from DSMZ), cultured in vitro in RPMI 1640 medium containing 10% fetal bovine serum (FBS).
(§5) Each of the test compounds was all formulated with DMSO into a 10 mM stock solution, which was formulated into the desired concentration with serum-free medium when used.
(§6) A certain number of cells in logarithmic growth phase was inoculated in a 96-well culture plate. After 24 hours, the cells were added with the test compounds in different concentrations (1-100000 nM), and incubated for 72 hours. Each well was added with the MTT working solution. After 4 hours, the cells were lysed with the triple solution, and the OD value was measured at a wavelength of 570 nm by a microplate reader. […]
The half effective concentration IC50 was calculated using the non-linear regression method according to the inhibition, rate of each concentration.
(§7) In the combined administration, the concentration ratio of compound A to compound B was 1:10. The combination index (CI) was calculated with Calcu-Syn program using the median effect method to evaluate the relationship between the two compounds during the combined administration (CI<1 refers to synergistic effect, CI=1 refers to additive effect, CI>1 refers to antagonistic effect).

[3] = tested on: human B cell lymphoma SU-DHL-4 cells; experiment: Proliferation of SU-DHL-4 cells in vitro (MTT); format: cell-based; conditions: single compound, 72 hours
Experimental: (§8) Cell line: human B cell lymphoma SU-DHL-4 and SU-DHL-6 cells (purchased from ATCC), cultured in vitro in RPMI 1640 medium containing 10% fetal bovine serum (FBS).
as §5
as §6, with “(1-40000” for “(1-100000”, “solution (10% SDS, 5% isobutanol, 0.012 mol/L HCl) at 37° C. overnight,” for “solution,”
(§9) The half effective concentration IC50 was calculated using the non-linear regression method according to the inhibition rate of each concentration.
as §7, with “1:2 (for SU-DHL-4) and 1:4 (for SU-DHL-6).” for “1:10.”

[4] = tested on: human follicular lymphoma DOHH-2 cells subcutaneous transplantation tumor; experiment: Subcutaneous transplantation tumor in nude mice inoculated with DOHH-2 cells; format: in vivo, BALB/cA-nude nude mice; conditions: DOHH-2 xenograft, 50 mg/kg each, PO, BID, D 0-20; for Mean tumor volume D 0: baseline at first administration
From the text: Test animals: BALB/cA-nude nude mice, 5-6 weeks old, female, purchased from Shanghai Lingchang Biotechnology Co., Ltd., with laboratory animals use license No.: SCXK (Shanghai) 2013-0018 and animal certificate No.: 2013001818958, feeding condition: SPF grade.
The test compounds were all formulated with 0.2% Tween 80+0.5% CMC solutions, and diluted to the corresponding concentration.
(1) The nude mice were subcutaneously inoculated with lymphoma DOHH-2 cells. When the tumors grown to 100-200 mm^3, the animals were grouped randomly (D0).
as §1, §2
as §3, with “efficacy.” for “efficacy. Tumor growth inhibition rate (TGI) (%)=100−T/C (%);”
as §4, with “21” for “14”, “the comparison between groups” for “single-tailed Mann-Whitney statistical analysis”, “using Games-Howell test. All data were analyzed using SPSS17.0,” for “to compare tumor volumes of the two groups,”

[5] = tested on: human B cell lymphoma SU-DHL-6 cells; experiment: Proliferation of SU-DHL-6 cells in vitro (MTT); format: cell-based; conditions: single compound, 72 hours
Experimental: as §8, §5
as §6, with “(1-40000” for “(1-100000”, “solution (10% SDS, 5% isobutanol, 0.012 mol/L HCl) at 37° C. overnight,” for “solution,”
as §9
as §7, with “1:2 (for SU-DHL-4) and 1:4 (for SU-DHL-6).” for “1:10.”

Row | Structure (SMILES) | Mean tumor volume D 0 [1] [mm^3] | % T/C D 14 [1] [%] | % tumor inhibition rate D 14 [1] [%] | Mean tumor volume D 14 [1] [mm^3] | Complete regression (number of mice) [1] | Partial regression (number of mice) [1] | tumor completely regressed, fraction of mice [1] | tumor partially regressed, fraction of mice [1] | IC50 [2] [µM] | IC50 [3] [nM] | Mean tumor volume D 0 [4] [mm^3] | % T/C D 21 [4] [%] | % tumor inhibition rate D 21 [4] [%] | Mean tumor volume D 21 [4] [mm^3] | IC50 [5] [nM]
1 | CC#CC(=O)N1CC[C@@H](n2cc(-c3ccc(Oc4c(F)cccc4F)cc3)c3c(N)n[nH]c(=O)c32)C1 [Compound A] | 122.4 | 24 | 76 | 276.9 | 1 | 1 | 1/8 | 1/8 | 0.325 | 1060 | 111.1 | 51 | 49 | 742.0 | 711
2 | CCc1c(N(CC)C2CCOCC2)cc2oc(CN3CCCCC3)cc2c1C(=O)NCc1c(C)cc(C)[nH]c1=O [Compound B, N-((4,6-dimethyl-2-oxo-1,2-dihydropyridin-3-yl)methyl)-5-ethyl-6-(ethyl(tetrahydro-2H-pyran-4-yl)amino)-2-(piperidin-1-ylmethyl)benzofuran-4-carboxamide] | 126.6 | 40 | 60 | 384.7 | 1 | 2 | 1/8 | 2/8 | 5.92 | 2170 | 107.7 | 65 | 35 | 914.1 | 4660
